Reference: PubChem BioAssay (NCI)
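Growth conditions: 96-well plates. Treatment: test compound, 48 hours, 5 concentrations. Analysis: linear interpolation between bracketing concentrations; unreached endpoints set to highest concentration. At the TGI there is no net growth.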

Key:
Assay in all cases: DTP human tumour cell line panel, 48 h
OVCAR-5 ovarian = system: OVCAR-5 ovarian
NCI/ADR-RES ovarian = system: NCI/ADR-RES ovarian
NCI-H522 lung = system: NCI-H522 lung
UACC-257 melanoma = system: UACC-257 melanoma
SR leukemia = system: SR leukemia
SK-MEL-5 melanoma = system: SK-MEL-5 melanoma
SK-OV-3 ovarian = system: SK-OV-3 ovarian
SN12C renal = system: SN12C renal
LOX IMVI melanoma = system: LOX IMVI melanoma
PC-3 prostate = system: PC-3 prostate
MDA-MB-435 = system: MDA-MB-435
COLO 205 colon = system: COLO 205 colon
SF-295 CNS = system: SF-295 CNS
CAKI-1 renal = system: CAKI-1 renal
OVCAR-3 ovarian = system: OVCAR-3 ovarian
K-562 leukemia = system: K-562 leukemia
IGROV1 ovarian = system: IGROV1 ovarian
EKVX NSCLC = system: EKVX NSCLC
RXF 393 renal = system: RXF 393 renal
MDA-N = system: MDA-N
MCF7 breast = system: MCF7 breast
HOP-62 NSCLC = system: HOP-62 NSCLC
ACHN renal = system: ACHN renal
M14 melanoma = system: M14 melanoma
NCI-H460 lung = system: NCI-H460 lung
BT-549 breast = system: BT-549 breast
HT29 colon = system: HT29 colon
SF-268 CNS = system: SF-268 CNS
SNB-75 CNS = system: SNB-75 CNS
T-47D breast = system: T-47D breast
SK-MEL-28 melanoma = system: SK-MEL-28 melanoma
MDA-MB-231 breast = system: MDA-MB-231 breast
NCI-H23 lung = system: NCI-H23 lung
HCC-2998 colon = system: HCC-2998 colon
OVCAR-4 ovarian = system: OVCAR-4 ovarian
SF-539 CNS = system: SF-539 CNS
HL-60(TB) leukemia = system: HL-60(TB) leukemia
DU-145 prostate = system: DU-145 prostate
SNB-19 CNS = system: SNB-19 CNS
HCT-15 colon = system: HCT-15 colon
A549 NSCLC = system: A549 NSCLC
TK-10 renal = system: TK-10 renal
SW-620 colon = system: SW-620 colon
U251 CNS = system: U251 CNS
A498 renal = system: A498 renal
SK-MEL-2 melanoma = system: SK-MEL-2 melanoma
OVCAR-8 ovarian = system: OVCAR-8 ovarian
KM12 colon = system: KM12 colon
RPMI-8226 leukemia = system: RPMI-8226 leukemia
CCRF-CEM leukemia = system: CCRF-CEM leukemia
786-0 renal = system: 786-0 renal
HCT-116 colon = system: HCT-116 colon
NCI-H226 lung = system: NCI-H226 lung
UO-31 renal = system: UO-31 renal
HS 578T breast = system: HS 578T breast
HOP-92 NSCLC = system: HOP-92 NSCLC
UACC-62 melanoma = system: UACC-62 melanoma
MOLT-4 leukemia = system: MOLT-4 leukemia
MALME-3M melanoma = system: MALME-3M melanoma

`CC[C@@H](/C=C\CCC1(C[C@H](O)CCC=C(C)C)OCCO1)O[Si](C(C)C)(C(C)C)C(C)C` was tested, and the TGI (OVCAR-5 ovarian) was 38.5 µM, the TGI (NCI/ADR-RES ovarian) was 53.9 µM and the TGI (NCI-H522 lung) was 39.2 µM. It also gave a TGI (UACC-257 melanoma) of 65.2 µM, a TGI (SR leukemia) of 51.3 µM and a TGI (SK-MEL-5 melanoma) of 37.5 µM. The TGI (SK-OV-3 ovarian) was 41.8 µM, the TGI (SN12C renal) was 32.8 µM and the TGI (LOX IMVI melanoma) was 38.8 µM. The TGI (PC-3 prostate) was greater than 100 µM, the TGI (MDA-MB-435) was greater than 100 µM and the TGI (COLO 205 colon) was 40.1 µM. It also gave a TGI (SF-295 CNS) of 43.1 µM, a TGI (CAKI-1 renal) of 87.1 µM and a TGI (OVCAR-3 ovarian) of 37.1 µM. For the same molecule, the TGI (K-562 leukemia) was 60 µM, the TGI (IGROV1 ovarian) was 42.1 µM and the TGI (EKVX NSCLC) was 60.2 µM. The TGI (RXF 393 renal) was 33.8 µM, the TGI (MDA-N) was greater than 100 µM and the TGI (MCF7 breast) was 32 µM. It also gave a TGI (HOP-62 NSCLC) greater than 100 µM, a TGI (ACHN renal) of 33.6 µM and a TGI (M14 melanoma) of 72.7 µM. It also gave a TGI (NCI-H460 lung) of 53.3 µM, a TGI (BT-549 breast) of 63.6 µM and a TGI (HT29 colon) of 65.9 µM. The TGI (SF-268 CNS) was 41.9 µM, the TGI (SNB-75 CNS) was 64.9 µM and the TGI (T-47D breast) was 42.6 µM. For the same molecule, the TGI (SK-MEL-28 melanoma) was 73.4 µM, the TGI (MDA-MB-231 breast) was 31.2 µM and the TGI (NCI-H23 lung) was 61.8 µM. For the same molecule, the TGI (HCC-2998 colon) was 31.9 µM, the TGI (OVCAR-4 ovarian) was greater than 100 µM and the TGI (SF-539 CNS) was 34.8 µM. It also gave a TGI (HL-60(TB) leukemia) of 38.4 µM, a TGI (DU-145 prostate) greater than 100 µM and a TGI (SNB-19 CNS) of 33.8 µM. The TGI (HCT-15 colon) was 42.8 µM, the TGI (A549 NSCLC) was greater than 100 µM and the TGI (TK-10 renal) was 39.3 µM. The TGI (SW-620 colon) was 73.9 µM, the TGI (U251 CNS) was 31.1 µM and the TGI (A498 renal) was 81.3 µM. The TGI (SK-MEL-2 melanoma) was 30.7 µM, the TGI (OVCAR-8 ovarian) was 38 µM and the TGI (KM12 colon) was greater than 100 µM. For the same molecule, the TGI (RPMI-8226 leukemia) was 42.7 µM, the TGI (CCRF-CEM leukemia) was greater than 100 µM and the TGI (786-0 renal) was 31.4 µM. It also gave a TGI (HCT-116 colon) of 38.6 µM, a TGI (NCI-H226 lung) of 35.9 µM and a TGI (UO-31 renal) of 34.3 µM. The TGI (HS 578T breast) was 80.5 µM, the TGI (HOP-92 NSCLC) was 66.8 µM and the TGI (UACC-62 melanoma) was 64.5 µM. For the same molecule, the TGI (MOLT-4 leukemia) was 45.4 µM.

`N#Cc1ccc(OCc2nc3cc(C(F)(F)F)ccc3nc2-c2ccccc2)cc1` showed a TGI (OVCAR-5 ovarian) greater than 100 µM, a TGI (NCI/ADR-RES ovarian) greater than 100 µM and a TGI (NCI-H522 lung) greater than 100 µM. For the same molecule, the TGI (UACC-257 melanoma) was greater than 100 µM, the TGI (SR leukemia) was greater than 100 µM and the TGI (SK-MEL-5 melanoma) was greater than 100 µM. It also gave a TGI (SN12C renal) greater than 100 µM, a TGI (LOX IMVI melanoma) greater than 100 µM and a TGI (PC-3 prostate) greater than 100 µM. The TGI (MDA-MB-435) was greater than 100 µM, the TGI (COLO 205 colon) was greater than 100 µM and the TGI (SF-295 CNS) was greater than 100 µM. The TGI (CAKI-1 renal) was greater than 100 µM, the TGI (OVCAR-3 ovarian) was greater than 100 µM and the TGI (IGROV1 ovarian) was greater than 100 µM. For the same molecule, the TGI (EKVX NSCLC) was greater than 100 µM, the TGI (MDA-N) was greater than 100 µM and the TGI (MCF7 breast) was greater than 100 µM. It also gave a TGI (HOP-62 NSCLC) greater than 100 µM, a TGI (ACHN renal) greater than 100 µM and a TGI (M14 melanoma) greater than 100 µM. For the same molecule, the TGI (NCI-H460 lung) was greater than 100 µM, the TGI (BT-549 breast) was greater than 100 µM and the TGI (HT29 colon) was greater than 100 µM. The TGI (SF-268 CNS) was greater than 100 µM, the TGI (SNB-75 CNS) was greater than 100 µM and the TGI (T-47D breast) was greater than 100 µM. The TGI (MALME-3M melanoma) was greater than 100 µM, the TGI (SK-MEL-28 melanoma) was greater than 100 µM and the TGI (MDA-MB-231 breast) was greater than 100 µM. For the same molecule, the TGI (NCI-H23 lung) was greater than 100 µM, the TGI (HCC-2998 colon) was greater than 100 µM and the TGI (OVCAR-4 ovarian) was greater than 100 µM. It also gave a TGI (SF-539 CNS) greater than 100 µM, a TGI (HL-60(TB) leukemia) greater than 100 µM and a TGI (DU-145 prostate) greater than 100 µM. It also gave a TGI (SNB-19 CNS) greater than 100 µM, a TGI (A549 NSCLC) greater than 100 µM and a TGI (TK-10 renal) greater than 100 µM. For the same molecule, the TGI (SW-620 colon) was greater than 100 µM, the TGI (U251 CNS) was greater than 100 µM and the TGI (A498 renal) was greater than 100 µM. It also gave a TGI (SK-MEL-2 melanoma) greater than 100 µM, a TGI (OVCAR-8 ovarian) greater than 100 µM and a TGI (KM12 colon) greater than 100 µM. The TGI (RPMI-8226 leukemia) was greater than 100 µM, the TGI (CCRF-CEM leukemia) was greater than 100 µM and the TGI (786-0 renal) was greater than 100 µM. For the same molecule, the TGI (HCT-116 colon) was greater than 100 µM, the TGI (UO-31 renal) was greater than 100 µM and the TGI (HS 578T breast) was greater than 100 µM. For the same molecule, the TGI (HOP-92 NSCLC) was greater than 100 µM, the TGI (UACC-62 melanoma) was greater than 100 µM and the TGI (MOLT-4 leukemia) was greater than 100 µM.
